Patent publication US11141413B2, “Method of treating renal cell carcinoma using N-(4-(6,7-dimethoxyquinolin-4-yloxy)phenyl)-N′-(4-fluorophenyl)cyclopropane-1,1-dicarboxamide, (2S)-hydroxybutanedioate” (Exelixis, Inc., priority 2016, dated 2021)
Values joined by “and” are separate entries in the source; they are usually repeats but may differ in a detail not shown here. Equal values may be shown once.

System: advanced renal cell carcinoma (RCC)
Experiment: METEOR (Study 1) randomized phase 3 trial, cabozantinib vs everolimus: PFS, OS, ORR
Type: in vivo, human
Details: for ORR (95% CI), IRC / ORR (95% CI), Investigator assessed / Progressive disease, IRC / Progressive disease, Investigator assessed / Stable disease, IRC / Stable disease, Investigator assessed / Confirmed ORR (95% CI), IRC / Confirmed ORR (95% CI), Investigator assessed / Confirmed responses (95% CI), IRC / Confirmed responses (95% CI), Investigator assessed: RECIST 1.1; for PFS event: all randomized
[1] = Patients With High Tumor Burden
[2] = Pts with Bone and Visceral Metastases
[3] = prior therapy subgroup Anti-PD-1/PD-L1
[4] = prior therapy subgroup Pazopanib Only
[5] = prior therapy subgroup Sunitinib Only

SMILES: CO[C@H]1C[C@@H]2CC[C@@H](C)[C@@](O)(O2)C(=O)C(=O)N2CCCC[C@H]2C(=O)O[C@H]([C@H](C)C[C@@H]2CC[C@@H](OCCO)[C@H](OC)C2)CC(=O)[C@H](C)/C=C(\C)[C@@H](O)[C@@H](OC)C(=O)[C@H](C)C[C@H](C)/C=C/C=C/C=C/1C [everolimus]
- Kaplan-Meier estimate of % of patients alive (6 Months landmark): 81% (76%, 85%)
- Kaplan-Meier estimate of % of patients alive (12 Months landmark): 63% and 63% (58%, 78%)
- Kaplan-Meier estimate of % of patients alive (18 Months landmark): 47%
- Kaplan-Meier estimate of % of patients alive (18 Months landmark, listed as Everolimus): 47% (41%, 52%)
- Kaplan-Meier estimate of % of patients alive (24 Months landmark): 31% (23%, 39%)
- ORR (95% CI), IRC (Asia Pacific): 2 (0-11) %
- ORR (95% CI), Investigator assessed (Asia Pacific): 4 (1-15) %
- Progressive disease, IRC (Asia Pacific): 28%
- Progressive disease, Investigator assessed (Asia Pacific): 26%
- Stable disease, IRC (Asia Pacific): 60%
- Stable disease, Investigator assessed (Asia Pacific): 60%
- ORR (95% CI), IRC (Europe): 4 (1-8) %
- ORR (95% CI), Investigator assessed (Europe): 4 (1-8) %
- Progressive disease, IRC (Europe): 24%
- Progressive disease, Investigator assessed (Europe): 25%
- Stable disease, IRC (Europe): 65%
- Stable disease, Investigator assessed (Europe): 66%
- Median OS (ITT, all 658 randomized, cutoff Dec. 31, 2015): 16.5 months
- Median OS (ITT, all 658 randomized, cutoff Dec. 31, 2015, listed as Everolimus): 16.5 (14.7, 18.8) months
- Objective response rate (confirmed, partial responses only) per IRC (ITT, all 658 randomized, cutoff May 22, 2015): 3%
- Objective response rate (confirmed, partial responses only) per IRC (ITT, all 658 randomized, cutoff May 22, 2015, listed as eve): 3%
- ORR (95% CI), IRC (North America): 2 (1-7) %
- ORR (95% CI), Investigator assessed (North America): 3 (1-8) %
- Progressive disease, IRC (North America): 30%
- Progressive disease, Investigator assessed (North America): 29%
- Stable disease, IRC (North America): 59%
- Stable disease, Investigator assessed (North America): 62%
- Confirmed ORR (95% CI), IRC [1]: 0%
- Confirmed ORR (95% CI), Investigator assessed [1]: 1 (0-4) %
- Progressive disease, IRC [1]: 26%
- Progressive disease, Investigator assessed [1]: 27%
- Stable disease, IRC [1]: 64%
- Stable disease, Investigator assessed [1]: 62%
- Confirmed ORR (95% CI), IRC (Patients With Low Tumor Burden): 7 (3-12) %
- Confirmed ORR (95% CI), Investigator assessed (Patients With Low Tumor Burden): 7 (4-13) %
- Progressive disease, IRC (Patients With Low Tumor Burden): 28%
- Progressive disease, Investigator assessed (Patients With Low Tumor Burden): 27%
- Stable disease, IRC (Patients With Low Tumor Burden): 60%
- Stable disease, Investigator assessed (Patients With Low Tumor Burden): 64%
- Confirmed responses (95% CI), IRC (Pts with Bone Metastases): 0%
- Confirmed responses (95% CI), Investigator assessed (Pts with Bone Metastases): 0%
- Progressive disease, IRC (Pts with Bone Metastases): 37%
- Progressive disease, Investigator assessed (Pts with Bone Metastases): 26%
- Stable disease, IRC (Pts with Bone Metastases): 54%
- Stable disease, Investigator assessed (Pts with Bone Metastases): 63%
- Confirmed responses (95% CI), IRC [2]: 0%
- Confirmed responses (95% CI), Investigator assessed [2]: 0%
- Progressive disease, IRC [2]: 44%
- Progressive disease, Investigator assessed [2]: 29%
- Stable disease, IRC [2]: 44%
- Stable disease, Investigator assessed [2]: 59%
- Confirmed responses (95% CI), IRC (Pts without Bone Metastases): 4 (2-7) %
- Confirmed responses (95% CI), Investigator assessed (Pts without Bone Metastases): 5 (3-9) %
- Progressive disease, IRC (Pts without Bone Metastases): 24%
- Progressive disease, Investigator assessed (Pts without Bone Metastases): 26%
- Stable disease, IRC (Pts without Bone Metastases): 64%
- Stable disease, Investigator assessed (Pts without Bone Metastases): 63%
- Objective response rate per investigator (all 658 randomized, cutoff May 22, 2015): 4%
- Median duration of PFS (all 658 randomized, per IRC, cutoff May 22, 2015): 3.9 months
- Median duration of PFS (all 658 randomized, per IRC, cutoff May 22, 2015, listed as Everolimus): 3.9 (3.7-5.1) months and 3.9 months
- Median duration of PFS (all 658 randomized, per investigator, cutoff May 22, 2015): 5.1 (3.9-5.5) months
- PFS event (per IRC, cutoff May 22, 2015): 214 (66) ^ n (%)
- PFS event (per investigator, cutoff May 22, 2015): 233 (71) ^ n (%)
- Median PFS (first 375 randomized, per independent radiology review committee (IRC)): 3.8 months
- Median PFS (first 375 randomized, per independent radiology review committee (IRC), listed as Everolimus): 3.8 (3.7, 5.4) months
- Median PFS (first 375 randomized, per independent radiology review committee (IRC), listed as eve): 3.8 months
- Median OS (high MET tumor expression): 15.2 months
- Median OS (high tumor burden): 12.2 mo
- Patients with reduction in measurable tumor lesion size (in vivo): 48%
- Median OS (low MET tumor expression): 18.4 months
- Median OS (low tumor burden): 19.3 mo
- Median OS (patients enrolled in Canada): 12.8 mo
- Median PFS (patients enrolled in Canada): 3.7 mo
- ORR (patients enrolled in Canada): 0%
- Median PFS (patients with bone and visceral metastases): 1.9 mo
- Median PFS (patients with bone metastases): 2.7 mo
- Best overall response: confirmed complete response (per IRC): 0 n
- Best overall response: confirmed partial response (per IRC): 11 n
- Best overall response: confirmed complete response (per investigator): 0 n
- Confirmed ORR (95% CI), tumor response by IRC [3]: 0%
- Confirmed ORR (95% CI), tumor response by investigator [3]: 0%
- Progressive disease, tumor response by IRC [3]: 29%
- Progressive disease, tumor response by investigator [3]: 14%
- Stable disease, tumor response by IRC [3]: 64%
- Stable disease, tumor response by investigator [3]: 86%
- Confirmed ORR (95% CI), tumor response by IRC [4]: 4 (1-10) %
- Confirmed ORR (95% CI), tumor response by investigator [4]: 4 (1-10) %
- Progressive disease, tumor response by IRC [4]: 22%
- Progressive disease, tumor response by investigator [4]: 27%
- Stable disease, tumor response by IRC [4]: 66%
- Stable disease, tumor response by investigator [4]: 64%
- Confirmed ORR (95% CI), tumor response by IRC [5]: 3 (1-8) %
- Confirmed ORR (95% CI), tumor response by investigator [5]: 4 (1-9) %
- Progressive disease, tumor response by IRC [5]: 35%
- Progressive disease, tumor response by investigator [5]: 29%
- Stable disease, tumor response by IRC [5]: 57%
- Stable disease, tumor response by investigator [5]: 63%
- Deaths (second interim analysis of OS, of randomized patients): 55%
